Data: a melting point compilation (Tetko et al.; mined from patent text by program, amines drawn as free bases though some values may be those of a salt)

First: CCOCCOc1cc(C(O)C#Cc2ccc(C(=O)O)cc2)cc2c1C(C)(C)CCC2(C)C (stereo unspecified)
Second: CCOC(=O)CC[C@H](NC(=O)c1ccc(C#Cc2cnc3nc(NC(=O)C(C)(C)C)nc(O)c3c2)cc1)C(=O)OCC
The melting point of the first is lower: 158 °C for the first, > 250 °C for the second.

First: O=C1NOc2cccc3nc4c(c(c23)C1Cc1ccccc1)CCCC4 (stereo unspecified)
Second: COc1ccc(CC2NC(=O)NC2=O)cc1CCc1ccccc1 (stereo unspecified)
The melting point of the first is higher: 166 to 168 °C for the first, 147 to 149 °C for the second.

Compared with `OC(CCN1CCN(c2ccccc2)CC1)COc1ccccc1Cl` (stereo unspecified), `O=C1CCCN1C(c1ccccc1Cl)N1CCN(c2ncccn2)CC1` (stereo unspecified) is higher in melting point: 100 to 102 °C for the first, 166 to 177 °C for the second.

Going from `CCNc1nc(Cl)c(SC)c(Cl)n1` to `Nc1c(Cl)c(F)nc(F)c1Cl`, the melting point falls from 147 °C to 110 °C.

First: O=C(CN1C(=O)C(Cl)=C(Cl)C1=O)Nc1ccc(Cl)cc1
Second: Cc1ccc(Cn2nc(C(=O)O)c(C)c2-c2ccc(Cl)cc2)cc1Cl
The melting point of the first is higher: 212 to 214 °C for the first, 162 °C for the second.

Compared with `CN1CC(=O)Nc2cscc2C1=O`, `O=c1[nH]c(=O)c2cccnc2[nH]1` is higher in melting point: 263 to 265 °C for the first, 360 °C for the second.

Compared with `O=C(O)c1ccc(C=Cc2csc3ccccc23)s1`, `Cn1c(=O)n(Cc2ccccc2)c(=O)c2cc(C(=O)O)ccc21` is higher in melting point: 196 to 197 °C for the first, 227 °C for the second.

First: NC(=O)Cc1ccccc1CSc1nc2ccccc2[nH]1
Second: COc1ccc(C(=O)Cn2c(-n3ccc(N)n3)nc3ccccc32)cc1
The melting point of the first is higher: 218 to 222 °C for the first, 136 to 140 °C for the second.

First: COC(=O)c1c(-c2ccccc2Cl)c2cc(C)cc(C)c2n(C)c1=O
Second: COC(=O)c1nc2cc(Cl)cc(C)c2c(O)c1C(=O)OC
The melting point of the first is higher: 128 to 129 °C for the first, 117 to 119 °C for the second.

Going from `CN1CCN(Cc2ccc(-c3ccc(-c4cn([C@H]5CN6CCC5CC6)nn4)s3)cc2)CC1` to `CCn1cc(C(=O)O)c(=O)c2cnc(N3CCN(Cc4ccc(OC)cc4)CC3)nc21`, the melting point falls from 214 °C to 136 °C.

First: CN(C)C=Nc1c(Cl)cc(N=Cc2ccc3c(c2)OCO3)cc1Cl
Second: Cc1cc2nc(Cl)cc(NCc3c(C)cccc3C)c2[nH]1
The melting point of the first is lower: 155 to 156 °C for the first, 310 to 312 °C for the second.

Compared with `CN(Cc1ccc(Cl)cc1)S(=O)(=O)c1cn(S(=O)(=O)N(C)C)cn1`, `CCCS(=O)(=O)N[C@H](C(=O)NCCc1ccc(OCC#Cc2ccc(Cl)cc2)c(OC)c1)C(C)C` is higher in melting point: 112 to 114 °C for the first, 131 to 133 °C for the second.

First: Cc1cc(SC2=C(O)CC(CCc3ccc(O)cc3)(C3CCCC3)OC2=O)c(C(C)(C)C)cc1N (stereo unspecified)
Second: Cn1c(COc2ccc(CC3SC(=O)NC3=O)cc2)nc2cc(Br)cnc21 (stereo unspecified)
The melting point of the first is lower: 133 to 135 °C for the first, 204 to 205 °C for the second.

First: Fc1ccc(C(c2ccccc2)(c2ccccc2F)n2ccnc2)cc1 (stereo unspecified)
Second: CC1(C)OC[C@H](Cc2ccccc2)N1C(=O)Cn1cc(-c2ccc(-c3ccccc3)cc2)cn1
The melting point of the first is higher: 164 to 167 °C for the first, 150 to 151 °C for the second.

First: C[C@H](CSC(=O)c1ccccc1)C(=O)O
Second: CCOC(=O)C1=C(N)N=C(OCC)C(C(=O)OCC)C1c1ccccc1 (stereo unspecified)
The melting point of the first is lower: 63 to 65 °C for the first, 119 °C for the second.

First: CC(C)(C)[Si](C)(C)OC[C@H]1OC[C@@H](n2cnc3cc(Cl)c(Cl)cc32)C[C@@H]1O
Second: CCOCC1COc2c(cc3ncc(C(=O)O)c(O)c3c2Cl)O1 (stereo unspecified)
The melting point of the first is lower: 143 to 155 °C for the first, 266 to 267 °C for the second.

First: Cn1nc(C(F)(F)F)cc1Oc1cc(C#N)cc(-c2cc(C(F)(F)F)nn2C)n1
Second: CSCCC(=O)Nc1ccc(-n2nc(C(F)(F)F)cc2C(F)(F)F)cc1
The melting point of the first is higher: 164 to 165 °C for the first, 122 to 123 °C for the second.

Compared with `[N-]=[N+]=Nc1ccc(S(=O)(=O)NCCc2ccc(CCO)cc2)cc1`, `NC(=O)COc1cccc(CCNS(=O)(=O)c2ccc(Cl)cc2)c1` is higher in melting point: 80 to 82 °C for the first, 113 °C for the second.

First: Cc1cc(NC(=O)C(C)(O)COc2cc(Cl)cc(Cl)c2)ccc1[N+](=O)[O-] (stereo unspecified)
Second: CC(=O)NNC1=Nc2ccc(Cl)cc2C(c2c(F)cccc2F)=NC1
The melting point of the first is lower: 141 to 143 °C for the first, 274 to 277 °C for the second.

Compared with `O=C(Nc1cccnn1)N1CCN(c2ccnc(-c3ccc(F)cc3F)c2)CC1`, `COC(=O)COc1ncccc1Oc1cc(N2C(=O)C=C(C(F)(F)F)CC2=O)c(F)cc1Cl` is lower in melting point: 189 to 190 °C for the first, 75.3 °C for the second.

Compared with `NC(=O)C1(C2c3[nH]c4ccc(Cl)cc4c3CCN2C=O)CCC1` (stereo unspecified), `CC(=O)N1CCC(CCC(=O)c2ccc(F)cc2)CC1` is lower in melting point: > 260 °C for the first, 95 to 96 °C for the second.

First: CC(CC(C(=O)N(C)C)(c1ccccc1)c1ccccc1)N1CCC(NCc2ccccc2)C(O)C1 (stereo unspecified)
Second: CCOC(=NC(=O)C1CC1)N1Cc2ccccc2-c2ccccc2C1
The melting point of the first is higher: 134 °C for the first, 97 to 99 °C for the second.

First: O=C(NCCO[N+](=O)[O-])C1COc2ccccc2O1 (stereo unspecified)
Second: O=C(OCC1CO1)c1cccc(C(=O)OCC2CO2)c1 (stereo unspecified)
The melting point of the first is higher: 69 to 71 °C for the first, 60 to 65 °C for the second.

First: CC1(C)C(=O)C(c2ccc(S(C)(=O)=O)cc2)=C1c1ccc(S(C)(=O)=O)cc1
Second: COc1ccc(-n2c(-c3cc(-c4ccc(S(C)(=O)=O)cc4)c(N4CCOCC4)s3)nc3ccccc3c2=O)cc1
The melting point of the first is lower: 212 °C for the first, 240 to 243 °C for the second.

Compared with `CC(C)n1cnc2c(NCc3ccncc3)nc(F)nc21`, `c1ccc2c(NCCCCNc3nccc4ccccc34)nccc2c1` is higher in melting point: 170 to 173 °C for the first, 189 to 192 °C for the second.

First: Cn1c(=O)n(CC(=O)OCCF)c(=O)n(-c2cc(Oc3ncc(C(F)(F)F)cc3Cl)ccc2Br)c1=O
Second: COc1cc(-c2cc(=O)c3ccc(OCCBr)cc3o2)cc(OC)c1OC
The melting point of the first is lower: 93 to 95 °C for the first, 184 to 185 °C for the second.

First: COC(=O)c1nc(-c2ccc(Cl)c(OC)c2F)nc(N)c1F
Second: N#Cc1cnn(-c2nc(F)c(C(F)(F)F)cc2Cl)c1N
The melting point of the first is higher: 200 to 202 °C for the first, 156 to 159 °C for the second.

First: O=C(CCCN1CCOCC1)c1ccc2oc3ccc(C(=O)CCCN4CCOCC4)cc3c2c1
Second: CCOC(=O)CCCn1c(NC(=O)c2cccs2)nc2cc(C(=O)N(C)C3CCCCC3)ccc21
The melting point of the first is higher: 98 to 99 °C for the first, 82 to 84 °C for the second.

First: N#Cc1cc(-c2ncccc2C(=O)O)ccc1OCCc1ccccc1Cl
Second: O=C(Oc1ccc(S(=O)(=O)Nc2ccccc2)cc1)c1ccc(CCBr)cc1
The melting point of the first is higher: 187 to 188 °C for the first, 156 to 157 °C for the second.

First: CC(C(=O)O)(c1ccc(OCc2ccc3ccccc3n2)cc1)c1ccc(OCc2ccc3ccccc3n2)cc1
Second: Oc1c2c(nn1-c1ccccn1)CCc1ccccc1-2
The melting point of the first is higher: 208 to 210 °C for the first, 145 to 146 °C for the second.

First: CCOC(=O)c1c(O)c2cccc3c2n(c1=O)CCO3
Second: Cc1cccc(C)c1NC(=O)C(Cl)Br (stereo unspecified)
The melting point of the first is higher: 160 to 164 °C for the first, 148 to 149 °C for the second.

Compared with `O=C1C(=O)N(C2CCCCC2)C(=O)N1c1ccccc1`, `CCCCCCCCCNC(=O)OCCCNC(=O)OC1CCN(C(=O)Oc2ccc(Oc3ccccc3)cc2)CC1` is lower in melting point: 133 to 140 °C for the first, 89 to 91 °C for the second.

First: CON=C1CSc2cccc(Cl)c2CN1
Second: CC(=O)Nc1cccnc1Cl
The melting point of the first is higher: 120 to 121 °C for the first, 81 to 83 °C for the second.

First: Cc1nc(N)c2nc(C)n(CCNS(C)(=O)=O)c2c1C
Second: CCCc1nc(NCCO)nc(N2CCOCC2)n1
The melting point of the first is higher: > 250 °C for the first, 95 to 99 °C for the second.

Compared with `CC(=O)N1CCN(Cc2ccc(CCn3cnc4cc(-c5ccc(Cl)cc5)sc4c3=O)cc2)C(=O)C1`, `CC(CC#N)C(=O)c1ccc(C(=O)C(C)CC#N)cc1` (stereo unspecified) is lower in melting point: 204 to 207 °C for the first, 142 to 145 °C for the second.

`COc1cc2c(cc1C#N)[C@@H](O)[C@H](Br)C(C)(C)O2` (relative stereo) gave a melting point of 144 to 146 °C.
